Reference: patent publication US20240158412A1 (Faxian Therapeutics, LLC, priority 2021, published 2024)

target: USP7 (Homo sapiens, UniProt Q93009); experiment: biochemical
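Further: fluorescence intensity readout of USP7 enzymatic activity, reaction incubated 90 min at room temperature.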

Chain of USP7 (Q93009 whole entry): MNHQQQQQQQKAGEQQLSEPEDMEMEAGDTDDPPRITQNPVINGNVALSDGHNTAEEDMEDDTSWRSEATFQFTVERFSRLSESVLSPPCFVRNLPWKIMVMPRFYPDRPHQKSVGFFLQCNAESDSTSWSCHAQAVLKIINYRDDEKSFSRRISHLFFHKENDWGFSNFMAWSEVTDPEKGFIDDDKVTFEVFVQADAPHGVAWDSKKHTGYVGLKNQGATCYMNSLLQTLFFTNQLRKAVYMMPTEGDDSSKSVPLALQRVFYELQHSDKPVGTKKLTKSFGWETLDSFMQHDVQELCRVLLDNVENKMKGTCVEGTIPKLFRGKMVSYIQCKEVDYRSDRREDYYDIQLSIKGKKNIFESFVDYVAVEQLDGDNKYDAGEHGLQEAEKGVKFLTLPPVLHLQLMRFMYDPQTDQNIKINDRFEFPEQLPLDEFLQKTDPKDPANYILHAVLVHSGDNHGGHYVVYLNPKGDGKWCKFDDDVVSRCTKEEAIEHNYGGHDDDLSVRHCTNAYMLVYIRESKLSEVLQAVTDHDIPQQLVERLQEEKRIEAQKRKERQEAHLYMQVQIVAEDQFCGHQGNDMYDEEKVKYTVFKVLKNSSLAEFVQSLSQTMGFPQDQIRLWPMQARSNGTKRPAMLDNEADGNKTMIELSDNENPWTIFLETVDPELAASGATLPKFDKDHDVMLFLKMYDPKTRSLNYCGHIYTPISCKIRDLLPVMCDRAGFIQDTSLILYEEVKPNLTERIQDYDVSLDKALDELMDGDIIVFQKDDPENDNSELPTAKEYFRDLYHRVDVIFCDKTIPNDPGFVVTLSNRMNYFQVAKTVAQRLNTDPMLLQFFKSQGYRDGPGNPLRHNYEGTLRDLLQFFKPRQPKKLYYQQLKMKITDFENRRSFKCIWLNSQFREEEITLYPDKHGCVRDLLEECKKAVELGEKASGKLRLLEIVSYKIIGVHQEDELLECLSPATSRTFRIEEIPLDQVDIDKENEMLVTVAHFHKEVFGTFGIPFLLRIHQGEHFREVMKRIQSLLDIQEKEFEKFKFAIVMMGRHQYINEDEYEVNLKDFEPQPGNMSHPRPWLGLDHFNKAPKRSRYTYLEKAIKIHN

SMILES	IC50 [nM]
O=C1CCC(=O)N1Cc1cc2nccc(-c3cc(C(F)(F)F)cc4c3N(C3CNC3)CCC4)c2s1 [Example 39]	10 to 100
O=C1CCC(=O)N1Cc1cc2nccc(-c3cc(Cl)cc4c3N([C@H]3C[C@@H](O)C3)CCC4)c2s1 [Example 41, Cis-1-[[7-[6-chloro-1-(3-hydroxycyclobutyl)-3,4-dihydro-2H-quinolin-8-yl]thieno[3,2-b]pyridin-2-yl]methyl]pyrrolidine-2,5-dione]	> 1000
O=C1CCC(=O)N1Cc1cc2nccc(-c3cc(Cl)cc4c3N(C3CCNCC3)CCC4)c2s1 [Example 45, 1-((7-(6-chloro-1-(piperidin-4-yl)-1,2,3,4-tetrahydroquinolin-8-yl)thieno[3,2-b]pyridin-2-yl)methyl)pyrrolidine-2,5-dione]	10 to 100
CN1CCC(N2CCCc3cc(Cl)cc(-c4ccnc5cc(CN6C(=O)CCC6=O)sc45)c32)CC1 [Example 46, 1-[[7-[6-chloro-1-(1-methyl-4-piperidyl)-3,4-dihydro-2H-quinolin-8-yl]thieno[3,2-b]pyridin-2-yl]methyl]pyrrolidine-2,5-dione]	10 to 100
O=C1CCC(=O)N1Cc1cc2nccc(-c3cc(Cl)cc4c3N(C3CNC3)CCC43CC3)c2s1 [Example 48, 1-((7-(1′-(azetidin-3-yl)-6′-chloro-2′,3′-dihydro-1′H-spiro[cyclopropane-1,4′-quinolin]-8′-yl)thieno[3,2-b]pyridin-2-yl)methyl)pyrrolidine-2,5-dione]	10 to 100
O=C1CCC(=O)N1Cc1cc2nccc(-c3cc(Cl)cc4c3N(CC3CCNCC3)CCC4)c2s1 [Example 49, 1-[[7-[6-chloro-1-(4-piperidylmethyl)-3,4-dihydro-2H-quinolin-8-yl]thieno[3,2-b]pyridin-2-yl]methyl]pyrrolidine-2,5-dione]	101 to 1000
CN1CCC(CN2CCCc3cc(Cl)cc(-c4ccnc5cc(CN6C(=O)CCC6=O)sc45)c32)CC1 [Example 50, 1-[[7-[6-chloro-1-[(1-methyl-4-piperidyl)methyl]-3,4-dihydro-2H-quinolin-8-yl]thieno[3,2-b]pyridin-2-yl]methyl]pyrrolidine-2,5-dione]	10 to 100
O=C1CCC(=O)N1Cc1cc2nccc(-c3cc(Cl)cc4c3N(C3CNC3)C(=O)CO4)c2s1 [Example 53, 1-[[7-[4-(azetidin-3-yl)-7-chloro-3-oxo-1,4-benzoxazin-5-yl]thieno[3,2-b]pyridin-2-yl]methyl]pyrrolidine-2,5-dione]	10 to 100
O=C1CCC(=O)N1Cc1cc2nccc(-c3cc(Cl)cc4c3N(C3CNC3)CCO4)c2s1 [Example 54, 1-[[7-[4-(azetidin-3-yl)-7-chloro-2,3-dihydro-1,4-benzoxazin-5-yl]thieno[3,2-b]pyridin-2-yl]methyl]pyrrolidine-2,5-dione]	10 to 100
O=c1ccn(CC(F)(F)F)c(=O)n1Cc1cc2nccc(-c3cc(Cl)cc4c3N([C@H]3CCNC3)CCC4)c2s1 [Example 55, (S)-3-((7-(6-chloro-1-(pyrrolidin-3-yl)-1,2,3,4-tetrahydroquinolin-8-yl)thieno[3,2-b]pyridin-2-yl)methyl)-1-(2,2,2-trifluoroethyl)pyrimidine-2,4(1H,3H)-dione]	< 10
O=c1ccn(CC(F)(F)F)c(=O)n1Cc1cc2nccc(-c3cc(Cl)cc4c3N([C@@H]3CCNC3)CCC4)c2s1 [Example 56, (R)-3-((7-(6-chloro-1-(pyrrolidin-3-yl)-1,2,3,4-tetrahydroquinolin-8-yl)thieno[3,2-b]pyridin-2-yl)methyl)-1-(2,2,2-trifluoroethyl)pyrimidine-2,4(1H,3H)-dione]	< 10
O=C1CCC(=O)N1Cc1cc2nccc(-c3cc(Cl)cc4c3N([C@H]3CCNC3)CCC4)c2s1 [Example 57, (S)-1-((7-(6-chloro-1-(pyrrolidin-3-yl)-1,2,3,4-tetrahydroquinolin-8-yl)thieno[3,2-b]pyridin-2-yl)methyl)pyrrolidine-2,5-dione]	< 10
O=C1CCC(=O)N1Cc1cc2nccc(-c3cc(Cl)cc4c3N([C@@H]3CCNC3)CCC4)c2s1 [Example 58, (R)-1-((7-(6-chloro-1-(pyrrolidin-3-yl)-1,2,3,4-tetrahydroquinolin-8-yl)thieno[3,2-b]pyridin-2-yl)methyl)pyrrolidine-2,5-dione]	10 to 100
CN1CC[C@H](N2CCCc3cc(Cl)cc(-c4ccnc5cc(CN6C(=O)CCC6=O)sc45)c32)C1 [Example 59, (S)-1-((7-(6-chloro-1-(1-methylpyrrolidin-3-yl)-1,2,3,4-tetrahydroquinolin-8-yl)thieno[3,2-b]pyridin-2-yl)methyl)pyrrolidine-2,5-dione]	< 10
CN1CC[C@@H](N2CCCc3cc(Cl)cc(-c4ccnc5cc(CN6C(=O)CCC6=O)sc45)c32)C1 [Example 60, (R)-1-((7-(6-chloro-1-(1-methylpyrrolidin-3-yl)-1,2,3,4-tetrahydroquinolin-8-yl)thieno[3,2-b]pyridin-2-yl)methyl)pyrrolidine-2,5-dione]	< 10
O=c1ccn(CCOC(F)F)c(=O)n1Cc1cc2nccc(-c3cc(Cl)cc4c3N([C@H]3CCNC3)CCC4)c2s1 [Example 61, (S)-3-((7-(6-chloro-1-(pyrrolidin-3-yl)-1,2,3,4-tetrahydroquinolin-8-yl)thieno[3,2-b]pyridin-2-yl)methyl)-1-(2-(difluoromethoxy)ethyl)pyrimidine-2,4(1H,3H)-dione]	< 10
O=c1ccn(CC2CC2)c(=O)n1Cc1cc2nccc(-c3cc(Cl)cc4c3N([C@H]3CCNC3)CCC4)c2s1 [Example 62, (S)-3-((7-(6-chloro-1-(pyrrolidin-3-yl)-1,2,3,4-tetrahydroquinolin-8-yl)thieno[3,2-b]pyridin-2-yl)methyl)-1-(cyclopropylmethyl)pyrimidine-2,4(1H,3H)-dione]	< 10
Cn1ccc(=O)n(Cc2cc3nccc(-c4cc(Cl)cc5c4N([C@H]4CCNC4)CCC5)c3s2)c1=O [Example 63, (S)-3-((7-(6-chloro-1-(pyrrolidin-3-yl)-1,2,3,4-tetrahydroquinolin-8-yl)thieno[3,2-b]pyridin-2-yl)methyl)-1-methylpyrimidine-2,4(1H,3H)-dione]	< 10
O=c1ccn(C[C@H](O)C(F)(F)F)c(=O)n1Cc1cc2nccc(-c3cc(Cl)cc4c3N([C@H]3CCNC3)CCC4)c2s1 [Example 64]	< 10
O=c1ccn(C[C@@H](O)C(F)(F)F)c(=O)n1Cc1cc2nccc(-c3cc(Cl)cc4c3N([C@H]3CCNC3)CCC4)c2s1 [Example 65, 3-((7-(6-chloro-1-((S)-pyrrolidin-3-yl)-1,2,3,4-tetrahydroquinolin-8-yl)thieno[3,2-b]pyridin-2-yl)methyl)-1-((R)-3,3,3-trifluoro-2-hydroxypropyl)pyrimidine-2,4(1H,3H)-dione]	< 10
COCCc1cnn(Cc2cc3nccc(-c4cc(Cl)cc5c4N([C@H]4CCNC4)CCC5)c3s2)c(=O)c1 [Example 66, (S)-2-((7-(6-chloro-1-(pyrrolidin-3-yl)-1,2,3,4-tetrahydroquinolin-8-yl)thieno[3,2-b]pyridin-2-yl)methyl)-5-(2-methoxyethyl)pyridazin-3(2H)-one]	< 10
O=c1ccn(CCC(F)F)c(=O)n1Cc1cc2nccc(-c3cc(Cl)cc4c3N([C@H]3CCNC3)CCC4)c2s1 [Example 67, (S)-3-((7-(6-chloro-1-(pyrrolidin-3-yl)-1,2,3,4-tetrahydroquinolin-8-yl)thieno[3,2-b]pyridin-2-yl)methyl)-1-(3,3-difluoropropyl)pyrimidine-2,4(1H,3H)-dione]	< 10
